# Experimental data reported in patent US12319709B2, “Diaryl trehalose compounds and uses thereof” (THE UNIVERSITY OF MONTANA, priority 2018, dated 2025).
# Legend:
# RAW264.7 cells = experiment: Cytokine (TNFα) response of mouse macrophage cell line; Table 2 'Murine'; format: cell-based; parameters: Maximum cytokine response Murine: unit not given here; conditions: NR = no response
# Procedure: Compounds were also tested in a mouse macrophage cell line (FIG. 4B). RAW264.7 cells were subjected to increasing concentrations of the compounds and assessed for production of the cytokine TNFα.
# [1] = system: peripheral blood mononuclear cells (PBMCs); experiment: IL-6 induction in fresh human PBMCs; format: cell-based; conditions: human IL-6; NR = no response
# Procedure: Tumor necrosis factor alpha (TNFα) and IL-6 production in peripheral blood mononuclear cells (PBMCs) was measured after exposure to various concentrations of the DAT compounds synthesized as shown above. Initial studies focused on two different methods of delivery of the DAT compounds to PBMC cultures. In the first delivery method, the indicated derivative compound was dissolved in isopropanol, serially diluted, and then dried to the bottom of a tissue culture plate. In the second delivery method, the indicated derivative compound was dissolved in DMSO and serially diluted into tissue culture media. In each method, PBMCs were added to the compounds and incubated at 37° C. TNFα (FIG. 1A) and IL-6 (FIG. 1B) were measured after 18-24 hours after treatment by ELISA assay.
# The isolated PBMCs were exposed to increasing concentrations of the indicated compounds resuspended in DMSO and serially diluted in media. IL-6 levels were determined from supernatants eighteen hours after treatment (FIG. 3).
smiles,measurement,setting,value
COc1cc(Br)c(CC(=O)OC[C@H]2O[C@H](O[C@H]3O[C@H](COC(=O)Cc4cc(OC)c(OC)cc4Br)[C@@H](O)[C@H](O)[C@H]3O)[C@H](O)[C@@H](O)[C@@H]2O)cc1OC [UM1082],Maximum cytokine response Murine,RAW264.7 cells,1.7
same,Minimal Effective Concentration Murine,RAW264.7 cells,33 µM
same,Maximum cytokine response h-IL-6,[1],0.5 OD
same,Minimal Effective Concentration h-IL-6,[1],100 µM
CC(C)(C)c1cc(C(=O)NC[C@H]2O[C@H](O[C@H]3O[C@H](CNC(=O)c4cc(C(C)(C)C)cc(C(C)(C)C)c4)[C@@H](O)[C@H](O)[C@H]3O)[C@H](O)[C@@H](O)[C@@H]2O)cc(C(C)(C)C)c1 [UM1123],Maximum cytokine response Murine,RAW264.7 cells,0.13
same,Minimal Effective Concentration Murine,RAW264.7 cells,3.3 µM
same,Maximum cytokine response h-IL-6,[1],2.7 OD
same,Minimal Effective Concentration h-IL-6,[1],33.3 µM
CCOc1cc(C(=O)NC[C@H]2O[C@H](O[C@H]3O[C@H](CNC(=O)c4cc(OCC)c(OCC)c(OCC)c4)[C@@H](O)[C@H](O)[C@H]3O)[C@H](O)[C@@H](O)[C@@H]2O)cc(OCC)c1OCC [UM1110],Maximum cytokine response Murine,RAW264.7 cells,11
same,Minimal Effective Concentration Murine,RAW264.7 cells,2.5 µM
same,Maximum cytokine response h-IL-6,[1],1 OD
same,Minimal Effective Concentration h-IL-6,[1],100 µM
Cc1ccccc1-c1cccc(C(=O)OC[C@H]2O[C@H](O[C@H]3O[C@H](COC(=O)c4cccc(-c5ccccc5C)c4)[C@@H](O)[C@H](O)[C@H]3O)[C@H](O)[C@@H](O)[C@@H]2O)c1 [UM1041],Maximum cytokine response Murine,RAW264.7 cells,1.2
same,Minimal Effective Concentration Murine,RAW264.7 cells,33 µM
same,Maximum cytokine response h-IL-6,[1],1.3 OD
same,Minimal Effective Concentration h-IL-6,[1],5 µM
CCCCOc1cc(C(=O)OC[C@H]2O[C@H](O[C@H]3O[C@H](COC(=O)c4cc(OCCCC)c(OCCCC)c(OCCCC)c4)[C@@H](O)[C@H](O)[C@H]3O)[C@H](O)[C@@H](O)[C@@H]2O)cc(OCCCC)c1OCCCC [UM1096],Maximum cytokine response Murine,RAW264.7 cells,0.005
same,Minimal Effective Concentration Murine,RAW264.7 cells,3 µM
same,Maximum cytokine response h-IL-6,[1],3.2 OD
same,Minimal Effective Concentration h-IL-6,[1],2.5 µM
CCOc1cc(C(=O)OC[C@H]2O[C@H](O[C@H]3O[C@H](COC(=O)c4ccc(OCc5ccccc5)c(OCC)c4)[C@@H](O)[C@H](O)[C@H]3O)[C@H](O)[C@@H](O)[C@@H]2O)ccc1OCc1ccccc1 [UM1134],Maximum cytokine response h-IL-6,[1],0.5 OD
same,Minimal Effective Concentration h-IL-6,[1],100 µM
O=C(OC[C@H]1O[C@H](O[C@H]2O[C@H](COC(=O)c3cccc(C(F)(F)F)c3O)[C@@H](O)[C@H](O)[C@H]2O)[C@H](O)[C@@H](O)[C@@H]1O)c1cccc(C(F)(F)F)c1O [UM1053],Maximum cytokine response h-IL-6,[1],0.5 OD
same,Minimal Effective Concentration h-IL-6,[1],100 µM
CC(C)(C)c1cc(CCC(=O)OC[C@H]2O[C@H](O[C@H]3O[C@H](COC(=O)CCc4cc(C(C)(C)C)c(O)c(C(C)(C)C)c4)[C@@H](O)[C@H](O)[C@H]3O)[C@H](O)[C@@H](O)[C@@H]2O)cc(C(C)(C)C)c1O [UM1086],Maximum cytokine response Murine,RAW264.7 cells,3
same,Minimal Effective Concentration Murine,RAW264.7 cells,0.13 µM
same,Maximum cytokine response h-IL-6,[1],3 OD
same,Minimal Effective Concentration h-IL-6,[1],33.3 µM
CCCCCCCCCCOc1cc(C(=O)OC[C@H]2O[C@H](O[C@H]3O[C@H](COC(=O)c4cc(OCCCCCCCCCC)c(OCCCCCCCCCC)c(OCCCCCCCCCC)c4)[C@@H](O)[C@H](O)[C@H]3O)[C@H](O)[C@@H](O)[C@@H]2O)cc(OCCCCCCCCCC)c1OCCCCCCCCCC [UM1099],Maximum cytokine response Murine,RAW264.7 cells,0.005
same,Minimal Effective Concentration Murine,RAW264.7 cells,3.4 µM
same,Maximum cytokine response h-IL-6,[1],3.2 OD
same,Minimal Effective Concentration h-IL-6,[1],11 µM
O=C(OC[C@H]1O[C@H](O[C@H]2O[C@H](COC(=O)c3cc([N+](=O)[O-])cc([N+](=O)[O-])c3)[C@@H](O)[C@H](O)[C@H]2O)[C@H](O)[C@@H](O)[C@@H]1O)c1cc([N+](=O)[O-])cc([N+](=O)[O-])c1 [UM1080],Maximum cytokine response Murine,RAW264.7 cells,1
same,Minimal Effective Concentration Murine,RAW264.7 cells,33 µM
same,Maximum cytokine response h-IL-6,[1],2 OD
same,Minimal Effective Concentration h-IL-6,[1],100 µM
O=C(OC[C@H]1O[C@H](O[C@H]2O[C@H](COC(=O)c3ccc(C(F)(F)F)cc3C(F)(F)F)[C@@H](O)[C@H](O)[C@H]2O)[C@H](O)[C@@H](O)[C@@H]1O)c1ccc(C(F)(F)F)cc1C(F)(F)F [UM1084],Maximum cytokine response Murine,RAW264.7 cells,2.9
same,Minimal Effective Concentration Murine,RAW264.7 cells,33 µM
same,Maximum cytokine response h-IL-6,[1],3 OD
same,Minimal Effective Concentration h-IL-6,[1],100 µM
Cc1ccc(C)c(C(C)(C)CC(=O)OC[C@H]2O[C@H](O[C@H]3O[C@H](COC(=O)CC(C)(C)c4cc(C)ccc4C)[C@@H](O)[C@H](O)[C@H]3O)[C@H](O)[C@@H](O)[C@@H]2O)c1 [UM1137],Maximum cytokine response h-IL-6,[1],1 OD
same,Minimal Effective Concentration h-IL-6,[1],100 µM
CC(C)(C)CC(C)(C)c1ccc(O)c(C(=O)OC[C@H]2O[C@H](O[C@H]3O[C@H](COC(=O)c4cc(C(C)(C)CC(C)(C)C)ccc4O)[C@@H](O)[C@H](O)[C@H]3O)[C@H](O)[C@@H](O)[C@@H]2O)c1 [UM1117],Maximum cytokine response Murine,RAW264.7 cells,11
same,Minimal Effective Concentration Murine,RAW264.7 cells,3 µM
same,Maximum cytokine response h-IL-6,[1],9 OD
same,Minimal Effective Concentration h-IL-6,[1],33.3 µM
CCCOc1cc(C(=O)OC[C@H]2O[C@H](O[C@H]3O[C@H](COC(=O)c4cc(OCCC)c(OCCC)c(OCCC)c4)[C@@H](O)[C@H](O)[C@H]3O)[C@H](O)[C@@H](O)[C@@H]2O)cc(OCCC)c1OCCC [UM1095],Maximum cytokine response Murine,RAW264.7 cells,0.001
same,Minimal Effective Concentration Murine,RAW264.7 cells,3.4 µM
same,Maximum cytokine response h-IL-6,[1],3.3 OD
same,Minimal Effective Concentration h-IL-6,[1],3.7 µM
O=C(OC[C@H]1O[C@H](O[C@H]2O[C@H](COC(=O)c3cccc(-c4ccccc4O)c3)[C@@H](O)[C@H](O)[C@H]2O)[C@H](O)[C@@H](O)[C@@H]1O)c1cccc(-c2ccccc2O)c1 [UM1060],Maximum cytokine response h-IL-6,[1],3.3 OD
same,Minimal Effective Concentration h-IL-6,[1],33.3 µM
Cc1ccc(-c2cccc(C(=O)OC[C@H]3O[C@H](O[C@H]4O[C@H](COC(=O)c5cccc(-c6ccc(C)cc6)c5)[C@@H](O)[C@H](O)[C@H]4O)[C@H](O)[C@@H](O)[C@@H]3O)c2)cc1 [UM1058],Maximum cytokine response Murine,RAW264.7 cells,2.5
same,Minimal Effective Concentration Murine,RAW264.7 cells,33 µM
O=C(OC[C@H]1O[C@H](O[C@H]2O[C@H](COC(=O)c3ccccc3-c3ccccc3)[C@@H](O)[C@H](O)[C@H]2O)[C@H](O)[C@@H](O)[C@@H]1O)c1ccccc1-c1ccccc1 [UM1039],Maximum cytokine response Murine,RAW264.7 cells,0.9
same,Minimal Effective Concentration Murine,RAW264.7 cells,33 µM
O=C(OC[C@H]1O[C@H](O[C@H]2O[C@H](COC(=O)c3cc(C(F)(F)F)cc(C(F)(F)F)c3)[C@@H](O)[C@H](O)[C@H]2O)[C@H](O)[C@@H](O)[C@@H]1O)c1cc(C(F)(F)F)cc(C(F)(F)F)c1 [UM1054],Maximum cytokine response h-IL-6,[1],1.5 OD
same,Minimal Effective Concentration h-IL-6,[1],100 µM
COc1cccc(C(=O)OC[C@H]2O[C@H](O[C@H]3O[C@H](COC(=O)c4cccc(OC)c4OC)[C@@H](O)[C@H](O)[C@H]3O)[C@H](O)[C@@H](O)[C@@H]2O)c1OC [UM1013],Maximum cytokine response Murine,RAW264.7 cells,3
same,Minimal Effective Concentration Murine,RAW264.7 cells,37 µM
CCc1cc(CC)cc(C(=O)OCC2OC(OC3OC(COC(=O)c4cc(CC)cc(CC)c4)C(O)C(O)C3O)C(O)C(O)C2O)c1 (stereo not drawn) [UM1017],Maximum cytokine response Murine,RAW264.7 cells,2.5
same,Minimal Effective Concentration Murine,RAW264.7 cells,4.1 µM
O=C(OC[C@H]1O[C@H](O[C@H]2O[C@H](COC(=O)c3cccc(-c4ccccc4)c3)[C@@H](O)[C@H](O)[C@H]2O)[C@H](O)[C@@H](O)[C@@H]1O)c1cccc(-c2ccccc2)c1 [UM1040],Maximum cytokine response Murine,RAW264.7 cells,0.9
same,Minimal Effective Concentration Murine,RAW264.7 cells,100 µM
O=C(OC[C@H]1O[C@H](O[C@H]2O[C@H](CO)[C@@H](O)[C@H](O)[C@H]2O)[C@H](O)[C@@H](O)[C@@H]1O)c1ccc([N+](=O)[O-])cc1[N+](=O)[O-] [UM1119],Maximum cytokine response Murine,RAW264.7 cells,11
same,Minimal Effective Concentration Murine,RAW264.7 cells,2.2 µM
O=C(OC[C@H]1O[C@H](O[C@H]2O[C@H](COC(=O)c3cc(O)cc(-c4ccccc4)c3)[C@@H](O)[C@H](O)[C@H]2O)[C@H](O)[C@@H](O)[C@@H]1O)c1cc(O)cc(-c2ccccc2)c1 [UM1061],Maximum cytokine response Murine,RAW264.7 cells,3
same,Minimal Effective Concentration Murine,RAW264.7 cells,100 µM
CCc1cc(CC)cc(C(=O)NC[C@H]2O[C@H](O[C@H]3O[C@H](CNC(=O)c4cc(CC)cc(CC)c4)[C@@H](O)[C@H](O)[C@H]3O)[C@H](O)[C@@H](O)[C@@H]2O)c1 [UM1109],Maximum cytokine response Murine,RAW264.7 cells,0.4
same,Minimal Effective Concentration Murine,RAW264.7 cells,3.2 µM
CCCOc1cc(OCCC)cc(C(=O)OC[C@H]2O[C@H](O[C@H]3O[C@H](COC(=O)c4cc(OCCC)cc(OCCC)c4)[C@@H](O)[C@H](O)[C@H]3O)[C@H](O)[C@@H](O)[C@@H]2O)c1 [UM1050],Maximum cytokine response h-IL-6,[1],3.3 OD
same,Minimal Effective Concentration h-IL-6,[1],9 µM
O=C(CCc1ccc(O)c(-c2ccccc2)c1)OC[C@H]1O[C@H](O[C@H]2O[C@H](COC(=O)CCc3ccc(O)c(-c4ccccc4)c3)[C@@H](O)[C@H](O)[C@H]2O)[C@H](O)[C@@H](O)[C@@H]1O [UM1064],Maximum cytokine response Murine,RAW264.7 cells,2.5
same,Minimal Effective Concentration Murine,RAW264.7 cells,100 µM
COc1cc(C(=O)OC[C@H]2O[C@H](O[C@H]3O[C@H](COC(=O)c4cc(OC)c(Br)c(OC)c4)[C@@H](O)[C@H](O)[C@H]3O)[C@H](O)[C@@H](O)[C@@H]2O)cc(OC)c1Br [UM1077],Maximum cytokine response h-IL-6,[1],2.5 OD
same,Minimal Effective Concentration h-IL-6,[1],100 µM
CCOc1cc(C(C)(C)C)ccc1C(=O)OC[C@H]1O[C@H](O[C@H]2O[C@H](COC(=O)c3ccc(C(C)(C)C)cc3OCC)[C@@H](O)[C@H](O)[C@H]2O)[C@H](O)[C@@H](O)[C@@H]1O [UM1132],Maximum cytokine response h-IL-6,[1],2.6 OD
same,Minimal Effective Concentration h-IL-6,[1],100 µM
